This note sets out measurements from ChEMBL document CHEMBL5137031, “The structure-based design of peptidomimetic inhibitors against SARS-CoV-2 3C like protease as Potent anti-viral drug candidate” (Eur J Med Chem, 2022).

In one data set the test system is A549. Put plainly: Cytotoxicity against human A549 cells assessed as inhibition of cell growth measured after 24 hrs by MTT assay. Format: toxicity, cell-based. To be noted: a549, 24 h. (In general: Tetrazolium assays rely on reduction of a dye to a coloured formazan, in cell work by metabolically active cells.)
Data set [1] addresses Replicase polyprotein 1ab (Severe acute respiratory syndrome coronavirus 2, UniProt P0DTD1). Kind of data set: Inhibition of SARS-CoV-2 3CL protease expressed in Escherichia coli BL21 (DE3) cells assessed as change in relative fluorescence unit using MCA-TSAVLQSGFRK(DNP)M as substrate preincubated for 30 mins followed by substrate addition and measured after 2 hrs by microplate reader based FRET assay.

The subject of a further data set is Vero. Put plainly: Cytotoxicity against African green monkey Vero cells assessed as reduction in cell viability incubated for 48 hrs by CCK8 assay. The data set is classed as toxicity, cell-based. To be noted: chlorocebus sabaeus.
The test system of data set [2] is SARS-CoV-2. Kind of data set: Antiviral activity against SARS-CoV-2 WIV04 infected in African green monkey Vero cells assessed as inhibition of viral proliferation measured at 24 hrs post infection by qRT-PCR analysis. Format: functional, organism-based. To be noted: Severe acute respiratory syndrome coronavirus 2, WIV04, Vero. On the technique in general: Quantitative PCR measures a nucleic acid by following its amplification.

Data set [3] deals with SARS-CoV-2. Put plainly: Antiviral activity against SARS-CoV-2 WIV04 infected in African green monkey Vero cells assessed as log reduction in viral RNA at 10 uM measured at 24 hrs post infection by qRT-PCR analysis. The data set is classed as functional, Severe acute respiratory syndrome coronavirus 2.

The structures appear in SMILES notation. pEC50, pIC50: −log10 of the molar value.

The term pIC50 denotes the negative decadic logarithm of the IC50, by convention in mol/L. What is called pEC50 is the EC50 on a negative log10 scale, so that one unit is a factor of ten.

In the case of `CC(C)C[C@H](NC(=O)/C=C/c1ccccc1)C(=O)N[C@H](C=O)C[C@@H]1CCCNC1=O`, the Activity result with A549 and with Vero was “Non-Toxic” each time. The negative logarithm of the IC50 (pIC50) in data set [1] is 6.49. Moreover, the pEC50 with SARS-CoV-2 [2] is 5.82. Also, in the data set with SARS-CoV-2 [3], the “log(activity)” value is 2.
For the compound `CC(C)C[C@H](NC(=O)[C@H](CC1CCCCC1)NC(=O)/C=C/c1ccccc1)C(=O)N[C@H](C=O)C[C@@H]1CCCNC1=O`, the Activity result in the data set on A549 and in the data set on Vero was “Non-Toxic” throughout. In addition, the pIC50 in data set [1] was 5.82. Further, the pEC50 in the data set on SARS-CoV-2 [2] was 5.78. Besides, the “log(activity)” value in the data set on SARS-CoV-2 [3] was determined as 2.
As for `CCCC[C@H](NC(=O)/C=C/c1ccccc1)C(=O)N[C@H](C=O)C[C@@H]1CCNC1=O`, the Activity result in the data set on A549 and in the data set on Vero was “Non-Toxic” in each case. The pIC50 in data set [1] is 6.43. Also, the pEC50 in the data set with SARS-CoV-2 [2] is 5.95. Moreover, in the data set on SARS-CoV-2 [3], the “log(activity)” value is 2.
For `CC(C)C[C@H](NC(=O)[C@@H](NC(=O)c1ccc2ccccc2c1)C(C)C)C(=O)N[C@H](C=O)C[C@@H]1CCCNC1=O`, the Activity result in the data set on A549 and in the data set with Vero was “Non-Toxic” throughout. Besides, the pIC50 in data set [1] is 6.57. In addition, the pEC50 with SARS-CoV-2 [2] was 5.87. The “log(activity)” value with SARS-CoV-2 [3] is on record as 2.
